What was measured:
[1] = Liquid, Vibrating tube method
[2] = refractive index (Na D-line) (dimensionless); conditions: 101.33 kPa, Liquid, Standard Abbe refractometry

NCCN [ethane-1,2-diamine]
[1]
Conditions	mass density [kg/m3]
293.15 K, 200 kPa	898
293.15 K, 2500 kPa	899
293.15 K, 5100 kPa	900
293.15 K, 10000 kPa	903
293.15 K, 15400 kPa	905
293.15 K, 19800 kPa	907
293.15 K, 25100 kPa	909
293.15 K, 30200 kPa	911
298.15 K, 101.33 kPa	895.323
303.15 K, 300 kPa	890
303.15 K, 2500 kPa	891
303.15 K, 5000 kPa	892
303.15 K, 10200 kPa	893
303.15 K, 15000 kPa	896
303.15 K, 20500 kPa	898
303.15 K, 25100 kPa	900
303.15 K, 30100 kPa	902
313.15 K, 300 kPa	880
313.15 K, 2500 kPa	880
313.15 K, 5100 kPa	882
313.15 K, 10000 kPa	884
313.15 K, 15100 kPa	887
313.15 K, 20100 kPa	889
313.15 K, 25400 kPa	892
313.15 K, 30400 kPa	894
323.15 K, 200 kPa	870
323.15 K, 2500 kPa	870
323.15 K, 5100 kPa	872
323.15 K, 10000 kPa	875
323.15 K, 15000 kPa	878
323.15 K, 19900 kPa	880
323.15 K, 25100 kPa	882
323.15 K, 29700 kPa	885
333.15 K, 200 kPa	860
333.15 K, 2500 kPa	861
333.15 K, 5000 kPa	863
333.15 K, 10000 kPa	866
333.15 K, 15000 kPa	868
333.15 K, 20000 kPa	871
333.15 K, 25000 kPa	874
333.15 K, 30000 kPa	876
343.15 K, 200 kPa	850
343.15 K, 2500 kPa	852
343.15 K, 5100 kPa	853
343.15 K, 10000 kPa	856
343.15 K, 15000 kPa	860
343.15 K, 20000 kPa	862
343.15 K, 25100 kPa	865
343.15 K, 30100 kPa	867
353.15 K, 200 kPa	840
353.15 K, 2500 kPa	842
353.15 K, 5000 kPa	844
353.15 K, 10200 kPa	847
353.15 K, 15100 kPa	850
353.15 K, 20000 kPa	853
353.15 K, 25100 kPa	856
353.15 K, 30100 kPa	859
363.15 K, 200 kPa	830
363.15 K, 2600 kPa	832
363.15 K, 5100 kPa	834
363.15 K, 10100 kPa	838
363.15 K, 15000 kPa	840
363.15 K, 20100 kPa	844
363.15 K, 25600 kPa	847
363.15 K, 30000 kPa	850
373.15 K, 200 kPa	820
373.15 K, 2500 kPa	822
373.15 K, 5100 kPa	825
373.15 K, 10100 kPa	828
373.15 K, 15000 kPa	831
373.15 K, 20100 kPa	835
373.15 K, 25100 kPa	838
373.15 K, 30200 kPa	841
383.15 K, 200 kPa	810
383.15 K, 2500 kPa	813
383.15 K, 5200 kPa	815
383.15 K, 10000 kPa	818
383.15 K, 15200 kPa	822
383.15 K, 20500 kPa	826
383.15 K, 25000 kPa	829
383.15 K, 30300 kPa	832

[2]
Conditions	refractive index
293.15 K	1.45676
298.15 K	1.45453

Source: the NIST ThermoML archive (doi:10.1016/j.fluid.2016.08.014)
